Experimental data as given in ChEMBL document CHEMBL1201862, “PubChem BioAssay data set” (2004).
Activity calls are given as the source filed them.

Columns and labels:
[1] = Luminescence Cell-Based Dose Retest to Confirm Inhibitors of Cancer Stem Cells. [Related pubchem assays (depositor defined):AID2717, AID2721]; format: functional; details: Homo sapiens
[2] = biological target: T1, Rac GTPase-activating protein 1 (Homo sapiens, UniProt Q9H0H5); assay: MgcRacGAP GTPase-activating activity inhibitors, confirmation, biochemical, ADP Hunter fluorescence, primary and confirmatory (AID 624330); format: functional
T1 sequence (Q9H0H5 whole entry): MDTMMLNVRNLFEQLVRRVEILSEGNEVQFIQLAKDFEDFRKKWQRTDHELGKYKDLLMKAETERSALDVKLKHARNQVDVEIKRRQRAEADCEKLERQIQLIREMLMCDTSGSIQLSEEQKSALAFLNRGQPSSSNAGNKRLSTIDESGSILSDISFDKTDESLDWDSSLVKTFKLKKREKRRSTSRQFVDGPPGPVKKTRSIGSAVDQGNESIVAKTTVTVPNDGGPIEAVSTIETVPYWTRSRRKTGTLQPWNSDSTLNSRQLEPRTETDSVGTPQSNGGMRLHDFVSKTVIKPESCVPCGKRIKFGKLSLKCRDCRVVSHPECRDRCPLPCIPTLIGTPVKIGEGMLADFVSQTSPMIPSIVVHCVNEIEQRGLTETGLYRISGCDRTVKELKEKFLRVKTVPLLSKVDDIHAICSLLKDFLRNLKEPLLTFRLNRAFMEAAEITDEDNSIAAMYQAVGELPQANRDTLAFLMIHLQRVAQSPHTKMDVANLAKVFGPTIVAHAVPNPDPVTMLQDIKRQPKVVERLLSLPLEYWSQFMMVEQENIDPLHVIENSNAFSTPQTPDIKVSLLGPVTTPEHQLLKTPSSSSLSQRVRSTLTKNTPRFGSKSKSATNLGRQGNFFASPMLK

[3] = HEp-2 cell cytotoxicity, dose response, cytotoxicity control for RSV inhibitor project, HTS (AID 2410); format: functional; details: human respiratory syncytial virus
Paired box protein Pax-8 = Paired box protein Pax-8 (Homo sapiens, UniProt Q06710); assay: inhibitors of PAX8-driven TPO luciferase reporter, dose response, RMG-I cells, cherry-pick (AID 687027); format: functional, cell-based;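 note: luciferase reporter driven by Pax8 target thyroperoxidase promoter measured by SteadyGlo luminescence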
Paired box protein Pax-8, sequence (Q06710 whole entry): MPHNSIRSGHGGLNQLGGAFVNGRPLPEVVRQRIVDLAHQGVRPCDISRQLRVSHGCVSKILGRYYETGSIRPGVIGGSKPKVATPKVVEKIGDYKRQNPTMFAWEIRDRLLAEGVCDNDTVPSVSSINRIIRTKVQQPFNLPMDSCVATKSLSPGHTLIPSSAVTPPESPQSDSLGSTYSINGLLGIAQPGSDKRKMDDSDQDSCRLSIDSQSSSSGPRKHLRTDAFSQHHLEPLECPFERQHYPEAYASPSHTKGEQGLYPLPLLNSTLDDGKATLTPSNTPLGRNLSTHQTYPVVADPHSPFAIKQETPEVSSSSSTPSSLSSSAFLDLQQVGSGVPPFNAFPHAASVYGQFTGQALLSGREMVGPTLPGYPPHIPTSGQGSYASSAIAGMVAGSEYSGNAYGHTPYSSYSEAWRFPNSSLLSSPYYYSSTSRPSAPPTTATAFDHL

H9c2 = assay: cells; format: functional, cell-based; details: Rattus norvegicus, H9c2, Myocardium;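 note: confirmatory concentration-response retest of ultra-high-throughput screening hits for modulation of myocardial damage; cell death induced by hydrogen peroxide oxidative stress; compound pretreatment for 60 min then peroxide exposure for 2 h; potency is for protecting the cells against peroxide damage rather than for killing them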
[4] = Shn3 3'UTR reporter inhibitors, dose response, cell-based, Clone20 osteoblasts, firefly luciferase, cherry-picked (AID 624132); format: functional;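 note: firefly luciferase luminescence from reporter carrying the Shn3 3'UTR in osteoblasts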
[5] = biological target: T2, Polyadenylate-binding protein 1 (Homo sapiens, UniProt P11940); assay: PABP1 MLLE–PAM2 interaction inhibitors, dose response, miRNA deadenylation inhibitor project, biochemical, fluorescence polarization, Cy5-PAM2 peptide, secondary (AID 602260); format: functional; details: read-out: IC50_Mean
T2 sequence (P11940 whole entry): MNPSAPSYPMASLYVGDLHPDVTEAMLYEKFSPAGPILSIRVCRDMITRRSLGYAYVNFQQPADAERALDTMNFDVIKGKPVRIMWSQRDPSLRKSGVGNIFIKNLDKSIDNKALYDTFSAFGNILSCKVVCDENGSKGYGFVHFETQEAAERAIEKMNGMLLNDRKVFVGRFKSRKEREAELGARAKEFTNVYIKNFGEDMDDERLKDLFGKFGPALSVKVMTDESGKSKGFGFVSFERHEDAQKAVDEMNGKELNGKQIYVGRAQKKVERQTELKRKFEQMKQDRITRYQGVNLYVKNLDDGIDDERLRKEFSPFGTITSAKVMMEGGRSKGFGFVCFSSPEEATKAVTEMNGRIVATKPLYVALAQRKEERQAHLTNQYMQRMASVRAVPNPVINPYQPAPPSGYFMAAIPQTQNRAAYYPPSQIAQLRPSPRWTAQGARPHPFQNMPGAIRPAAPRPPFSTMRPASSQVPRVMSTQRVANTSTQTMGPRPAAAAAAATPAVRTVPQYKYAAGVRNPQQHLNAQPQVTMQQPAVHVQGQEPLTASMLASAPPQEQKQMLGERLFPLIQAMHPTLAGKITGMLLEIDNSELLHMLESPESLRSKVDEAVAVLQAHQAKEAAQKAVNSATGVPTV

[6] = biological target: T2, Polyadenylate-binding protein 1; assay: PABP1 MLLE–PAM2 binding inhibitor potency, dose response, biochemical, fluorescence polarization, FITC-PAM2 peptide (AID 602259); format: functional; details: read-out: IC50_Mean
[7] = biological target: Luciferin 4-monooxygenase (Photinus pyralis, UniProt P08659); assay: firefly luciferase enzyme inhibitors, dose response, biochemical, luminescence (AID 1891)
Luciferin 4-monooxygenase, sequence (P08659 whole entry): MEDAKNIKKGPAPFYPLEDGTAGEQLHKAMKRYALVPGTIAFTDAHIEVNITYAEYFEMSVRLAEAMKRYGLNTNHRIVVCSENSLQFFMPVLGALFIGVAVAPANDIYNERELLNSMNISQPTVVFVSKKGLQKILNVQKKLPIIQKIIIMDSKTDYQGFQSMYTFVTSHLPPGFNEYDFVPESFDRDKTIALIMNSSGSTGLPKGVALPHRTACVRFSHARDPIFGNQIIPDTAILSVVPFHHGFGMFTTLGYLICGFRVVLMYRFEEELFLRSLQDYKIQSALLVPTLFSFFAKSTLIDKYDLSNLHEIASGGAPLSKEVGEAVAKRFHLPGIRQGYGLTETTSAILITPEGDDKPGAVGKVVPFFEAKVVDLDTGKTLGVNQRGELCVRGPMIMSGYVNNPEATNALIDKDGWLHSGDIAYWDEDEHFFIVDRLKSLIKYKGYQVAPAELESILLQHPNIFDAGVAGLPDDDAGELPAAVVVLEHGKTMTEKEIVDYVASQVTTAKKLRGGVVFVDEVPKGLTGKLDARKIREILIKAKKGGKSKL

[8] = Luminescence Cell-Based Dose Confirmation HTS to Identify Inhibitors of Platelet Dense Granule Release. [Related pubchem assays: 1663 (Primary HTS), 1678 (Summary of Project)]; format: functional
Protein RecA = biological target: T3, Protein RecA (Mycobacterium tuberculosis, UniProt P9WHJ3); assay: Fluorescence Cell-Free Homogeneous Dose Retest to Identify Inhibitors of RecA-Intein Splicing Activity. [Related pubchem assays (depositor defined):AID2097, AID2223, AID489010, AID492950]; format: functional
T3 sequence (P9WHJ3 whole entry): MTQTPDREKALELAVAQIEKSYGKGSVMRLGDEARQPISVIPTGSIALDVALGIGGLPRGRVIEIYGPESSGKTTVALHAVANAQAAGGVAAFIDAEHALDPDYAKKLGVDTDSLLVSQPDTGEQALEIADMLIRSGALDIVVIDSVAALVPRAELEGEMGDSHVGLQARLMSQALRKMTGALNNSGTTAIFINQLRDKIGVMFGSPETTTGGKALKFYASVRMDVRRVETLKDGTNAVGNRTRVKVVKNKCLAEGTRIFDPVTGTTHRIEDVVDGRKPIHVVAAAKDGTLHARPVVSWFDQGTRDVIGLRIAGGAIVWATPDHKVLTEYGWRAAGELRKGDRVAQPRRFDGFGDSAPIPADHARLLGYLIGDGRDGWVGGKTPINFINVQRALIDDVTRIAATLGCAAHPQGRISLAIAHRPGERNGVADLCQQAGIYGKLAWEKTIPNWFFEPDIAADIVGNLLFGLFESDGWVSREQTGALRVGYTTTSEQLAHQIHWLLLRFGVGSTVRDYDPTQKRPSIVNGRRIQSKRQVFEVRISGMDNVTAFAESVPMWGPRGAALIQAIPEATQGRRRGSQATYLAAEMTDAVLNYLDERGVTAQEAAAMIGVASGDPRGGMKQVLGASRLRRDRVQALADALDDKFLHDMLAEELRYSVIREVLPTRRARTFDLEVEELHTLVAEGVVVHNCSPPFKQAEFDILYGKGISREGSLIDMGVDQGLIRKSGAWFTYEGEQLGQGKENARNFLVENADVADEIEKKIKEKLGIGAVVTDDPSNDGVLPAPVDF

[9] = biological target: T4, Replicative DNA helicase DnaB (Mycobacterium tuberculosis, UniProt P9WMR3); assay: DnaB intein splicing inhibitors, dose response, biochemical, cell-free fluorescence (AID 449749); format: functional
T4 sequence (P9WMR3 whole entry): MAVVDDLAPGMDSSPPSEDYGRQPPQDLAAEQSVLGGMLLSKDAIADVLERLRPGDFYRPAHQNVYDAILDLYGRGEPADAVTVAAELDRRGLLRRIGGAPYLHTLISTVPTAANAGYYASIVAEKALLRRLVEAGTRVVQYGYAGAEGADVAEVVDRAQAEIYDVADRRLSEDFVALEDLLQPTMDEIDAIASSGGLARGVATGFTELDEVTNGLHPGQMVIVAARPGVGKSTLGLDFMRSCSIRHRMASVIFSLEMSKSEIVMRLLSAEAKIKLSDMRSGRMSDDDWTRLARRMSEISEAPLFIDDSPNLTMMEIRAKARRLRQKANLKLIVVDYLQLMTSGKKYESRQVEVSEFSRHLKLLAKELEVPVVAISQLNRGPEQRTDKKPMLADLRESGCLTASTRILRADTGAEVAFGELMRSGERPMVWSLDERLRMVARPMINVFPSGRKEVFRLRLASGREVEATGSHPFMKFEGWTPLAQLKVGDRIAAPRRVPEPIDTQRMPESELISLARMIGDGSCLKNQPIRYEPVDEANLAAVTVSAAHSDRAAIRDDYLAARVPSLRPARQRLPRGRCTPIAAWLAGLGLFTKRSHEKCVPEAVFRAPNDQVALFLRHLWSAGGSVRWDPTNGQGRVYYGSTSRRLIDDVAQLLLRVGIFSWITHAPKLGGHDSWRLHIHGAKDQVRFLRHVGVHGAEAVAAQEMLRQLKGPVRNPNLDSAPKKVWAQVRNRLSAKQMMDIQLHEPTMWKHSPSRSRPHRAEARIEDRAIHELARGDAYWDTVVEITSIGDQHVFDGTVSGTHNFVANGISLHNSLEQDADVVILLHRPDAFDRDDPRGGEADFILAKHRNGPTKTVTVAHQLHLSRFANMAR

[10] = microbe, parasite or virus in culture; format: functional; details: Mycobacterium tuberculosis
Cytochrome P450 2C9 = Cytochrome P450 2C9 (Homo sapiens, UniProt P11712)
Cytochrome P450 2C9, sequence (P11712 whole entry): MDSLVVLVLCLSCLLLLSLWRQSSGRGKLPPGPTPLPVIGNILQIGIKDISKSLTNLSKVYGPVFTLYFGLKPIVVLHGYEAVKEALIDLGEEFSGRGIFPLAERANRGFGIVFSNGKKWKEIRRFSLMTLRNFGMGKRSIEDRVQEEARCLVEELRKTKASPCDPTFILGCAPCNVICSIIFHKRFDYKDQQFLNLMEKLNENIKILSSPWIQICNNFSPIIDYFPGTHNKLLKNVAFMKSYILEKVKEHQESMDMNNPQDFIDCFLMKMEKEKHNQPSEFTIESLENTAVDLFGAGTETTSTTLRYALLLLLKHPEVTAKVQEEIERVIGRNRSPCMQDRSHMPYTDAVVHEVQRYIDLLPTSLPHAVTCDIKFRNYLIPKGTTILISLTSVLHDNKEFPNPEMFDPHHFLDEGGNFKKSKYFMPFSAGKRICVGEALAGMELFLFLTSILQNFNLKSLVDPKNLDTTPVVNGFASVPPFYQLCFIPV

For `CCOc1ccccc1N(C(=O)Nc1ccc(Cl)cc1)C1=NCCS1`, the AC50 [1] was 5.46 µM (active).
For `O=C(Nc1ccccc1Cl)Oc1ccc(-c2ccccc2)cc1`, the IC50 [2] was 11.3 µM (active).
For `O=C1NC(=S)S/C1=C1\Sc2ccccc2N1CCCS(=O)(=O)O`, the IC50 [2] was 123 µM (active).
For `COc1cccc(CN2CCN(Cc3cccc(Oc4ccccc4)c3)CC2)c1OC`, the IC50 [2] was 93.1 µM (active).
With `Nc1nnnn1/N=C/c1cccc(Br)c1` the CC50 [3] was > 50 µM (active).
With `C[C@@H]1CCCCO[C@H](CN(C)S(=O)(=O)c2ccc(Cl)cc2)[C@@H](C)CN([C@@H](C)CO)C(=O)c2cc(NC(=O)CCC(F)(F)F)ccc2O1` the AC50 (Paired box protein Pax-8) was 3.2 µM (active).
For `O=C(NCCCNC(=O)c1nc[nH]c1C(=O)Nc1cccc(Cl)c1)c1nc[nH]c1C(=O)Nc1cccc(Cl)c1`, the AC50 [1] was 3.78 µM (active) and the IC50 (H9c2) was > 79 µM (inactive).
With `Cn1c(=O)c2c(SCc3c(F)cccc3Cl)nc(CC(C)(C)C)nc2n(C)c1=O` the CC50 [3] was 30.1 µM (active).
For `Cc1cccc(C)c1NC(=O)CN(C)C(=O)c1cc(S(=O)(=O)N(C)C)ccc1N1CCCC1`, the AC50 [4] was 27.1 µM (active).
For `CCOC1=C2CN(S(=O)(=O)c3ccc(C)cc3)[C@@H](c3ccccc3)C[C@H]2[C@H]2C(=O)N(c3ccccc3)C(=O)[C@H]2C1`, the IC50 [5] was > 66 µM (inactive) and the IC50 [6] was 51 µM (inactive).
With `COc1ccc(NC(=O)CN2C(=O)C(c3ccccc3)=NC23CCCCCC3)cc1` the EC50 [7] was > 112 µM (not active) and the EC50 [8] was > 112 µM (not active).
With `Cc1ncoc1C(=O)Nc1ccc2c(c1)OCCO2` the EC50 [7] was 34.3 µM (active) and the EC50 [8] was 5.11 µM (active).
For `CCOc1ccccc1N(C(=O)c1snc(C(N)=O)c1N)C(C(=O)NC1CCCC1)c1cccs1` (configuration not stated), the IC50 [5] was > 66 µM (inactive) and the IC50 [6] was > 66 µM (inactive).
With `CN(c1ccccc1)S(=O)(=O)c1cccc(NC(=O)c2cncc(Br)c2)c1` the CC50 [3] was 12.4 µM (active).
With `O=C(Nc1ccc(O)cc1)c1cc2n(n1)C(C(F)(F)F)CC(c1ccco1)N2` (configuration not stated) the IC50 [2] was 27.7 µM (active).
For `Cc1cc(C)n(C(=O)c2ccc(S(=O)(=O)N3CCCC3)cc2)n1`, the EC50 [7] was > 112 µM (not active) and the EC50 [8] was > 112 µM (not active).
In the case of `COc1cccc(OC)c1C(=O)N1CCN(Cc2ccc3c(c2)OCO3)CC1`, the IC50 [2] was 248 µM (active).
For `Cc1ccc(Cn2nnc3c(O)nc(C4CCN(S(=O)(=O)c5ccccc5F)CC4)nc32)cc1`, the CC50 [3] was 22.2 µM (active).
With `CCN=C(S)NS(=O)(=O)c1ccc(C)cc1` the IC50 [5] was > 66 µM (inactive) and the IC50 [6] was > 66 µM (inactive).
In the case of `O=C(Nc1ccc(O)cc1)c1ccccc1OCc1ccccc1`, the IC50 [2] was 30.1 µM (active).
In the case of `Cc1ccnc(SC2CC(=O)N(c3ccc([N+](=O)[O-])cc3)C2=O)n1` (configuration not stated), the IC50 [5] was > 66 µM (inactive) and the IC50 [6] was > 66 µM (inactive).
With `NC(=O)CC(NC(=O)Cc1ccc(Br)cc1)c1ccc(NC2CC3CCC2C3)c([N+](=O)[O-])c1` (configuration not stated) the AC50 [1] was 6.22 µM (active).
For `CCOC(=O)C(=O)NNc1ccc(F)cc1`, the AC50 [1] was 0.837 µM (active).
For `COc1ccc(NC(=O)CC2Sc3ncnn3C2=O)cc1` (configuration not stated), the IC50 [5] was > 66 µM (inactive) and the IC50 [6] was > 66 µM (inactive).
With `CCOC(=O)NC1(C(F)(F)F)NC(=O)N(Cc2ccco2)C1=O` (configuration not stated) the EC50 [7] was > 112 µM (not active) and the EC50 [8] was > 112 µM (not active).
With `COc1ccccc1NC(=O)C(C)NS(=O)(=O)c1ccccc1` (configuration not stated) the EC50 [7] was > 112 µM (not active) and the EC50 [8] was > 112 µM (not active).
In the case of `O=C(CCl)Nc1ccccc1C(=O)Nc1ccc2c(c1)OCO2`, the EC50 (Protein RecA) was 13 µM (active), the EC50 [7] was > 112 µM (not active) and the EC50 [8] was 27.7 µM (active). The AC50 [9] was 64.8 µM (active).
In the case of `CCO/C(O)=C1/Sc2ccccc2N=C1C`, the IC50 [2] was 53.5 µM (active).
For `CC(/C=N/n1c(S)nnc1C1CCCCC1)=C\c1ccccc1`, the AC50 [1] was 4.26 µM (active) and the CC50 [10] was > 40 µM (active).
For `COc1ccc(S[C@@H](CCN2CC[C@H](NC(=O)OCc3ccccc3)CCC2=O)c2ccccc2)cc1`, the AC50 [1] was 3.09 µM (active).
With `Cc1ccc(CNc2cnn(C34CC5CC(CC(C5)C3)C4)c(=O)c2Cl)cc1` the AC50 [1] was 1.18 µM (active).
With `O=C(CSCc1c(Cl)cccc1Cl)NCc1ccco1` the EC50 [7] was > 112 µM (not active) and the EC50 [8] was > 112 µM (not active).
For `COc1ccc(-c2nc(C[S+]([O-])CC(=O)NC3CCCC(C)C3C)c(C)o2)cc1OC` (configuration not stated), the EC50 [7] was > 112 µM (not active) and the EC50 [8] was > 112 µM (not active).
With `Cc1cc(NC(=O)/C=C/c2ccc(Cl)cc2)no1` the AC50 [1] was 22.8 µM (active).
In the case of `CCOc1cc(-c2cc(-c3ccc(N)cc3)nc(N)c2C#N)ccc1O`, the IC50 (H9c2) was > 79 µM (inactive) and the IC50 [2] was 131 µM (active).
With `C[C@@H]1CN([C@@H](C)CO)S(=O)(=O)c2ccc(C#Cc3ccccc3F)cc2O[C@H]1CN(C)CC1CCOCC1` the AC50 (Paired box protein Pax-8) was 10.3 µM (active).
For `COc1ccc(CNC(=O)c2cc(-c3cc(C)cc(C)c3O)[nH]n2)cc1`, the CC50 [3] was > 50 µM (active).
In the case of `O=C1CCC(c2ccc(-n3ccnc3)cc2)=NN1` [IMAZODAN], the EC50 [7] was > 112 µM (not active), the AC50 (Cytochrome P450 2C9) was 31.6 µM (inconclusive) and the EC50 [8] was 1.36 µM (active).
For `O=C(Cc1nnc(O)c2ccccc12)NCc1ccc(Cl)cc1`, the EC50 [7] was > 112 µM (not active), the IC50 (H9c2) was > 79 µM (inactive) and the EC50 [8] was > 112 µM (not active).
For `C[C@H](CO)N1C[C@H](C)[C@H](CN(C)C(=O)NC2CCCCC2)OCCCC[C@H](C)Oc2ccc(NC(=O)Nc3ccc(C(F)(F)F)cc3)cc2C1=O`, the AC50 (Paired box protein Pax-8) was 6.15 µM (active).
